In publication PMC3767973 (Chembiochem : a European journal of chemical biology, 2013):

What was measured:
[1] = target: T1, E. coli DXP synthase (Escherichia coli, UniProt P77488); format: biochemical; conditions: 100 mM HEPES pH 8.0, 10-20 mM pyruvate, 10% DMSO, 37 °C; average ± SEM, triplicate
T1 sequence (P77488 1-620): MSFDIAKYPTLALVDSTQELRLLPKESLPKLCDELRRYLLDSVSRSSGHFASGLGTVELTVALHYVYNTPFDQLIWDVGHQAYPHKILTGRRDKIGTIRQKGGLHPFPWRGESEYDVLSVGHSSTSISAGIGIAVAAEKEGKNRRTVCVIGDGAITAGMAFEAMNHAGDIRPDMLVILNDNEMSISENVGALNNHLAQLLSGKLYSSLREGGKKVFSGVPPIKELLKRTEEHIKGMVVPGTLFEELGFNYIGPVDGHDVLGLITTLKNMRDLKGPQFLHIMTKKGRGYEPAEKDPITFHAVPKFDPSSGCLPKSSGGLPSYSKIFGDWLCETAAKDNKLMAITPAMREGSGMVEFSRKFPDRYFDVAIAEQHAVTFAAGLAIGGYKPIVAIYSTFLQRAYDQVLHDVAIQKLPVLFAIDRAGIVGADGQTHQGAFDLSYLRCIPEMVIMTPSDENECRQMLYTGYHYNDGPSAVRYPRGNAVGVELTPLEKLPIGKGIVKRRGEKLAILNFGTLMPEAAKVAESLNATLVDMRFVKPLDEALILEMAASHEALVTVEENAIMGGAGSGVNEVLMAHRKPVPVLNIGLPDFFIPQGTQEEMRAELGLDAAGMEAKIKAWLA

[2] = tested on: Porcine PDH E1 subunit; test: Kinetic parameters of nitroso substrates with PDH; format: biochemical; conditions: read-out: PDH Km; 100 mM HEPES pH 8.0, 10-20 mM pyruvate, 10% DMSO, 37 °C; average ± SEM, triplicate
[3] = target: T2, IspC (Escherichia coli, UniProt P45568); test: Inhibition of the coupling enzyme IspC by BnAP; format: biochemical; conditions: up to 1.5 mM
T2 sequence (P45568 1-398): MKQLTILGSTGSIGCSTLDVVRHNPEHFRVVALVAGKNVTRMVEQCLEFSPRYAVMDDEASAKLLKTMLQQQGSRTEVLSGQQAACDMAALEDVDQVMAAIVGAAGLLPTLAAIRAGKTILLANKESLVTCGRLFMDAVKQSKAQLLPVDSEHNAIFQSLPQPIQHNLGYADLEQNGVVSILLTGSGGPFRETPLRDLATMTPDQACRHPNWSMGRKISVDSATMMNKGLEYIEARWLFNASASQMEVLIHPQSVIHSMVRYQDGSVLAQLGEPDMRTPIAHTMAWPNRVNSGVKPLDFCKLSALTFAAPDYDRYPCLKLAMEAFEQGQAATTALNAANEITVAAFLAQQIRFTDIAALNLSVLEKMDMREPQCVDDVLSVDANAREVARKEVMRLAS

[4] = target: DXP synthase (Escherichia coli, UniProt P77488); conditions: 0.5-5 mM nitroso substrate, 10-20 mM pyruvate, 37 °C, HPLC
[5] = tested on: yeast TK; conditions: cited from earlier work
[6] = target: T3, DXP synthase (Escherichia coli, UniProt P77488); test: Aromatic aldehydes as DXP synthase acceptor substrates; format: biochemical
T3 sequence (P77488 1-620): T1 sequence (P77488 1-620)

O=Nc1ccccc1 [Compound 1, nitrosobenzene]
kcat [1]: 2.92 ± 0.317 s⁻¹
Km [2]: 350 ± 30 µM

CC(=O)P(=O)(O)OCc1ccccc1 [BnAP, benzylacetylphosphonate]
Inhibition of the coupling enzyme (IspC) [3]: not observed

O=C[C@H](O)COP(=O)(O)O [D-GAP, D-glyceraldehyde 3-phosphate, reference compound]
kcat [1]: 1.7 ± 0.12 s⁻¹

CN(C)c1ccc(N=O)cc1 [Compound 4]
Km [1]: 54 ± 13 µM
kcat [1]: 0.015 ± 0.0017 s⁻¹
Km [2]: 408 ± 60 µM
Substrate for DXP synthase (turnover) [4]: is a substrate
Substrate for yeast TK [5]: not a substrate

O=Cc1c(O)cc([N+](=O)[O-])cc1[N+](=O)[O-] [2-Hydroxy-4,6-dinitrobenzaldehyde]
kcat ([6]; aromatic aldehyde as acceptor substrate): 0.00583 ± 0.00083 s⁻¹
Km relative to the natural substrate D-GAP ([6]; fold higher than D-GAP): ~ 18 fold
